Assay results: ChEMBL document CHEMBL1150724, “In vitro antiviral activity of dammar resin triterpenoids” (J Nat Prod, 1987)
Values after ≈ are worked out from the molar mass of the structure shown.

Columns and labels:
[1] = tested on: Human alphaherpesvirus 1; test: Antiviral activity against HSV1 MacIntyre replication in african green monkey Vero cells assessed as inhibition of virus-induced cytopathic effect after 48 hrs; type: functional, organism-based; details: Human alphaherpesvirus 1, MacIntyre
[2] = tested on: Human alphaherpesvirus 2; test: Antiviral activity against HSV2 MS replication infected in african green monkey Vero cells assessed as inhibition of virus-induced cytopathic effect after 48 hrs; type: functional, organism-based; details: Human alphaherpesvirus 2, MS

Compound	IC50 [1]	IC50 [2]
CC(C)=CCC[C@@](C)(O)[C@H]1CC[C@]2(C)[C@@H]1CC[C@@H]1[C@@]3(C)CCC(=O)C(C)(C)[C@@H]3CC[C@]12C	2 mg/L (≈ 4.52 µM)	5 mg/L (≈ 11.3 µM)
CC(C)=CCC[C@](C)(O)[C@H]1CC[C@]2(C)[C@@H]1CC[C@@H]1[C@@]3(C)CC[C@H](O)C(C)(C)[C@@H]3CC[C@]12C	7 mg/L (≈ 15.7 µM)	7 mg/L (≈ 15.7 µM)
C=C(C)[C@@H]1CC[C@]2(C)[C@H](CC[C@@H]3[C@@H]([C@@](C)(O)CCC=C(C)C)CC[C@]32C)[C@@]1(C)CCC(=O)O [DAMMARENOLIC ACID]	3 mg/L (≈ 6.54 µM)	2 mg/L (≈ 4.36 µM)
C=C(C)[C@@H]1CC[C@]2(C)[C@H](CC[C@@H]3[C@@H]([C@]4(C)CC[C@@H](C(C)(C)O)O4)CC[C@]32C)[C@@]1(C)CCC(=O)O [EICHLERIANIC ACID]	7 mg/L (≈ 14.7 µM)	8 mg/L (≈ 16.9 µM)

Next, values leading:

IC50 [1]	IC50 [2]	Compound
5 mg/L (≈ 10.6 µM)	5 mg/L (≈ 10.6 µM)	CC1(C)CC[C@@]23CC[C@]4(C)[C@@](OC2=O)([C@@H]3C1)[C@@H](O)C[C@@H]1[C@@]2(C)CCC(=O)C(C)(C)[C@@H]2CC[C@]14C
2.5 mg/L (≈ 5.86 µM)	3 mg/L (≈ 7.03 µM)	C=C(CCC=C(C)C)[C@H]1CC[C@]2(C)[C@@H]1CC[C@@H]1[C@@]3(C)CC[C@H](O)C(C)(C)[C@@H]3CC[C@]12C [DAMMARADIENOL]
7 mg/L (≈ 15.8 µM)	5 mg/L (≈ 11.3 µM)	CC(C)(O)[C@H]1CC[C@@]2(C)C1CC[C@]1(C)[C@@H]2CC[C@@H]2[C@@]3(C)CCC(=O)C(C)(C)[C@@H]3CC[C@]21C (stereo partly drawn) [HYDROXYHOPANONE]
7 mg/L (≈ 14.7 µM)	8 mg/L (≈ 16.9 µM)	C=C(C)[C@@H]1CC[C@]2(C)[C@H](CC[C@@H]3[C@@H]([C@]4(C)CC[C@H](C(C)(C)O)O4)CC[C@]32C)[C@@]1(C)CCC(=O)O [SHOREIC ACID]
2.5 mg/L (≈ 5.5 µM)	8 mg/L (≈ 17.6 µM)	C[C@H]1[C@H](C)CC[C@]2(C(=O)O)CC[C@]3(C)C(=CC[C@@H]4[C@@]5(C)CCC(=O)C(C)(C)[C@@H]5CC[C@]43C)[C@H]12 [URSONIC ACID]
